Source: US20240109903A1, “SUBSTITUTED HETEROCYCLES FOR TREATING CANCER” (Northwestern University, priority 2022, published 2024)

Key:
full NCI 60 cell panel = assay: NCI 60 Cell One-dose screen; assay type: cell-based, human; details: single high dose 10^−5 M, NCI 60 panel
Excerpt: Compounds were submitted to the NCI 60 Cell screen and tested at a single high dose (10^−5 M) in the full NCI 60 cell panel (see the following reference for details of using NCI 60 human tumor cell lines for screening anticancer drugs: Shoemaker R H. The NCI60 human tumor cell line anticancer drug screen. Nature Rev Cancer 2006; 6: 813-23). The One-dose data is reported as a mean graph of the percent growth of treated cells. The number reported for the One-dose assay is growth relative to the no-drug control, and relative to the time zero number of cells. This allows detection of both growth inhibition (values between 0 and 100) and lethality (values less than 0). For example, a value of 100 means no growth inhibition. A value of 40 would mean 60% growth inhibition. A value of 0 means no net growth over the course of the experiment. A value of −40 would mean 40% lethality. A value of −100 means all cells are dead. FIGS. 1-8 show the mean graph of percent growth against the NCI-60 cell panel for NUCC-0226674, NUCC-0226679, NUCC-0226680, NUCC-0226683, NUCC-0226689, NUCC-0226694, NUCC-0226695, and NUCC-0226698.

A549/ATCC = assay: NCI 60 five-dose screen A549/ATCC; assay type: cell-based; details: Homo sapiens, five-dose
EKVX = assay: NCI 60 five-dose screen EKVX; assay type: cell-based; details: Homo sapiens, five-dose
HOP-92 = assay: NCI 60 five-dose screen HOP-92; assay type: cell-based; details: Homo sapiens, five-dose
NCI-H322M = assay: NCI 60 five-dose screen NCI-H322M; assay type: cell-based; details: Homo sapiens, five-dose
NCI-H460 = assay: NCI 60 five-dose screen NCI-H460; assay type: cell-based; details: Homo sapiens, five-dose
NCI-H522 = assay: NCI 60 five-dose screen NCI-H522; assay type: cell-based; details: Homo sapiens, five-dose
COLO 205 = assay: NCI 60 five-dose screen COLO 205; assay type: cell-based; details: Homo sapiens, five-dose
SW-620 = assay: NCI 60 five-dose screen SW-620; assay type: cell-based; details: Homo sapiens, five-dose
SF-295 = assay: NCI 60 five-dose screen SF-295; assay type: cell-based; details: Homo sapiens, five-dose
SNB-75 = assay: NCI 60 five-dose screen SNB-75; assay type: cell-based; details: Homo sapiens, five-dose
LOX IMVI = assay: NCI 60 five-dose screen LOX IMVI; assay type: cell-based; details: Homo sapiens, five-dose
MDA-MB-435 = assay: NCI 60 five-dose screen MDA-MB-435; assay type: cell-based; details: Homo sapiens, five-dose
SK-MEL-2 = assay: NCI 60 five-dose screen SK-MEL-2; assay type: cell-based; details: Homo sapiens, five-dose
NCI/ADR-RES = assay: NCI 60 five-dose screen NCI/ADR-RES; assay type: cell-based; details: Homo sapiens, five-dose
786-0 = assay: NCI 60 five-dose screen 786-0; assay type: cell-based; details: Homo sapiens, five-dose
ACHN = assay: NCI 60 five-dose screen ACHN; assay type: cell-based; details: Homo sapiens, five-dose
CAKI-1 = assay: NCI 60 five-dose screen CAKI-1; assay type: cell-based; details: Homo sapiens, five-dose
SN12C = assay: NCI 60 five-dose screen SN12C; assay type: cell-based; details: Homo sapiens, five-dose
UO-31 = assay: NCI 60 five-dose screen UO-31; assay type: cell-based; details: Homo sapiens, five-dose
PC-3 = assay: NCI 60 five-dose screen PC-3; assay type: cell-based; details: Homo sapiens, five-dose
BT-549 = assay: NCI 60 five-dose screen BT-549; assay type: cell-based; details: Homo sapiens, five-dose
T-47D = assay: NCI 60 five-dose screen T-47D; assay type: cell-based; details: Homo sapiens, T47D, five-dose
MDA-MB-468 = assay: NCI 60 five-dose screen MDA-MB-468; assay type: cell-based; details: Homo sapiens, five-dose
[1] = read-out: LC50 (the source's name) (converted)

## FC(F)(F)c1cc2c(Cl)ncnc2n1CCC1CCOCC1 [NUCC-0226674]
Full NCI 60 cell panel
  growth inhibition in the One-Dose Screen: significant growth inhibition
A549/ATCC
  GI50: 21.9 µM
  IC50: 34.7 µM
  IC (TGI): 56.2 µM
A549/ATCC; [1]
  CC50: ≥ 100 µM
EKVX
  GI50: 12.6 µM
  IC50: 25.7 µM
  IC (TGI): 28.2 µM
EKVX; [1]
  CC50: 64.6 µM
HOP-92
  GI50: 13.8 µM
  IC50: 34.7 µM
  IC (TGI): 32.4 µM
HOP-92; [1]
  CC50: 75.9 µM
NCI-H322M
  GI50: 3.16 µM
  IC50: 8.32 µM
  IC (TGI): 12.6 µM
NCI-H322M; [1]
  CC50: 35.5 µM
NCI-H460
  GI50: 2400 nM
  IC50: 3.55 µM
  IC (TGI): 5.62 µM
NCI-H460; [1]
  CC50: 22.4 µM
NCI-H522
  GI50: 1700 nM
  IC50: 3.39 µM
  IC (TGI): 3.72 µM
NCI-H522; [1]
  CC50: 8.13 µM
COLO 205
  GI50: 16.2 µM
  IC50: 30.2 µM
  IC (TGI): 37.2 µM
COLO 205; [1]
  CC50: 85.1 µM
SW-620
  GI50: 12 µM
  IC50: 17.4 µM
  IC (TGI): 28.2 µM
SW-620; [1]
  CC50: 67.6 µM
SF-295
  GI50: 13.8 µM
  IC50: 25.1 µM
  IC (TGI): 27.5 µM
SF-295; [1]
  CC50: 56.2 µM
SNB-75
  GI50: 3.09 µM
  IC50: 15.5 µM
  IC (TGI): 15.1 µM
SNB-75; [1]
  CC50: 39.8 µM
LOX IMVI
  GI50: 1620 nM
  IC50: 2880 nM
  IC (TGI): 3.02 µM
LOX IMVI; [1]
  CC50: 5.5 µM
MDA-MB-435
  GI50: 5.01 µM
  IC50: 8.13 µM
  IC (TGI): 18.2 µM
MDA-MB-435; [1]
  CC50: 49 µM
SK-MEL-2
  GI50: 13.2 µM
  IC50: 29.5 µM
  IC (TGI): 28.2 µM
SK-MEL-2; [1]
  CC50: 60.3 µM
NCI/ADR-RES
  GI50: 17 µM
  IC50: 30.9 µM
  IC (TGI): 35.5 µM
NCI/ADR-RES; [1]
  CC50: 72.4 µM
786-0
  GI50: 16.2 µM
  IC50: 28.2 µM
  IC (TGI): 32.4 µM
786-0; [1]
  CC50: 64.6 µM
ACHN
  GI50: 11 µM
  IC50: 18.6 µM
  IC (TGI): 26.3 µM
ACHN; [1]
  CC50: 61.7 µM
CAKI-1
  GI50: 14.5 µM
  IC50: 26.9 µM
  IC (TGI): 30.2 µM
CAKI-1; [1]
  CC50: 63.1 µM
SN12C
  GI50: 6.61 µM
  IC50: 12.6 µM
  IC (TGI): 20 µM
SN12C; [1]
  CC50: 46.8 µM
UO-31
  GI50: 1780 nM
  IC50: 3.39 µM
  IC (TGI): 3.8 µM
UO-31; [1]
  CC50: 7.94 µM
PC-3
  GI50: 2950 nM
  IC50: 4.27 µM
  IC (TGI): 11.2 µM
PC-3; [1]
  CC50: 45.7 µM
BT-549
  GI50: 10.2 µM
  IC50: 23.4 µM
  IC (TGI): 22.4 µM
BT-549; [1]
  CC50: 50.1 µM
T-47D
  GI50: 20.4 µM
  IC50: 47.9 µM
  IC (TGI): 60.3 µM
T-47D; read-out: LC50 (the source's name)
  CC50: ≥ 100 µM
MDA-MB-468
  GI50: 1660 nM
  IC50: 3.8 µM
  IC (TGI): 3.47 µM
MDA-MB-468; [1]
  CC50: 7.24 µM
